Assay results taken from ChEMBL document CHEMBL1126814, “Oxindole N-Methyl-D-Aspartate (NMDA) antagonists” (Bioorg Med Chem Lett, 1993).

Columns and labels:
[1] = Ratio of the IC50s of the two assays (alpha1 adrenoceptor binding assay/GT functional assay) used as an estimate of Therapeutic Index
[2] = biological target: T1, Adrenergic receptor alpha-1 (Rattus norvegicus, UniProt P15823+P23944+P43140); test: Tested for the Alpha-1 adrenergic receptor affinity in a standard radioligand binding assay with [3H]- prazosin; type: protein assay
T1 sequence (P15823 whole entry): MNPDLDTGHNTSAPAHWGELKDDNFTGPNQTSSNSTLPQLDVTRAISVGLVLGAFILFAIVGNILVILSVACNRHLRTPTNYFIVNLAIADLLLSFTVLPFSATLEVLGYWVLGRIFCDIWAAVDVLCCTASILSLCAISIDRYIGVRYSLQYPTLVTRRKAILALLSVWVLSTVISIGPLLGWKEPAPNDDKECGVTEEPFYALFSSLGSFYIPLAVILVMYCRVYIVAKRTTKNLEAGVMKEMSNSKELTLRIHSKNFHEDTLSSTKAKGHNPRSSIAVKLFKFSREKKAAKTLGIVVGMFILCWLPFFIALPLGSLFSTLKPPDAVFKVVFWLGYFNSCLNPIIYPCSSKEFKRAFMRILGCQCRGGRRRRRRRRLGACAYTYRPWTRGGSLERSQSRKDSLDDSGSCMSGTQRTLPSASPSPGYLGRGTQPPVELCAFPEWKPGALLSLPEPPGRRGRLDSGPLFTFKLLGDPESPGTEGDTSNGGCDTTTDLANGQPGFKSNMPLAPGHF
T1 sequence (P23944 whole entry): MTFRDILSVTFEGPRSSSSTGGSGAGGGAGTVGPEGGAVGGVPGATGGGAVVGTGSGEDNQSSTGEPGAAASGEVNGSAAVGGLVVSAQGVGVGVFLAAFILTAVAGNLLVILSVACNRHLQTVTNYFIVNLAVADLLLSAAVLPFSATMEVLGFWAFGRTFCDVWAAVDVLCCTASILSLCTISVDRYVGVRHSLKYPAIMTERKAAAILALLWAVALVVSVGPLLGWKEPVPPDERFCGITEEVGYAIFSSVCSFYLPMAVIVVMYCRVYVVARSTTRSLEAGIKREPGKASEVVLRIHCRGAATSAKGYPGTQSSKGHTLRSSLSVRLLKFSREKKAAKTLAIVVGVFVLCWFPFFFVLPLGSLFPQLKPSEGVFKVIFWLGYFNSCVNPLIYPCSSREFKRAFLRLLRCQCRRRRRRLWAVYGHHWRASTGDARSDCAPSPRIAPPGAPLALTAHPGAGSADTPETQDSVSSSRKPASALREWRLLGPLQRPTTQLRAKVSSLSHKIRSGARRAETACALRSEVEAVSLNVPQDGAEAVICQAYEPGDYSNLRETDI
T1 sequence (P43140 whole entry): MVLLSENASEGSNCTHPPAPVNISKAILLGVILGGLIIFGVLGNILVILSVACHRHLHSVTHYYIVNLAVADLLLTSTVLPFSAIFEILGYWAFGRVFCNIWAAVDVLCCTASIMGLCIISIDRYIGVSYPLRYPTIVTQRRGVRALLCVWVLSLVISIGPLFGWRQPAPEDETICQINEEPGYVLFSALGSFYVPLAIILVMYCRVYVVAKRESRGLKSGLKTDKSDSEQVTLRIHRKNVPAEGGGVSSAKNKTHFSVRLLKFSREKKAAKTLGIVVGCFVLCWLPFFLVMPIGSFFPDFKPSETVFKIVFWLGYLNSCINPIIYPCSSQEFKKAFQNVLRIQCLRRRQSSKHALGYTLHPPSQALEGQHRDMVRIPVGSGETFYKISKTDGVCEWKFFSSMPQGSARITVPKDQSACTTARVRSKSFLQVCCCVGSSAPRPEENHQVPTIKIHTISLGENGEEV

IC50 [2] [µM] | Compound | TI [1]
0.1 | C[C@@H]([C@H](O)c1ccc2c(c1)CC(=O)N2)N1CCC(Cc2ccccc2)CC1 | 0.4
0.71 | C[C@@H]([C@@H](O)c1ccc2c(c1)CC(=O)N2)N1CCC(Cc2ccccc2)CC1 | 6.4
– | C[C@@H]([C@@H](O)c1ccc(O)cc1)N1CCC(Cc2ccccc2)CC1 | 15.3
0.349 | C[C@@H]([C@@H](O)c1ccc2c(c1)CC(=O)N2)N1CCC(c2ccccc2)CC1 | 8.7
0.183 | O=C1Cc2cc(C(O)CN3CCC(Cc4ccc(F)cc4)CC3)ccc2N1 (stereo not drawn) | 0.3
0.1 | C[C@@H]([C@H](O)c1ccc(O)cc1)N1CCC(Cc2ccccc2)CC1 [(R,S)-IFENPRODIL] | 0.38
0.8 | OC(CN1CCC(Cc2ccc(F)cc2)CC1)c1ccc(Cl)cc1 (stereo not drawn) [ELIPRODIL] | 0.8
